Measured values from patent publication US11912723B2, “KRAS modulators and uses thereof” (Quanta Therapeutics, Inc., priority 2022, dated 2024).

Experiments:
[1] = test system: AGS (KRAS G12D) cells, phospho-ERK; experiment: pERK In Cell Western (ICW) assay (Method B); assay type: cell-based; conditions: 3 hours
Procedure: pERK ICW is a high throughput screening assay to evaluate the cellular potency of mutant KRAS small molecule inhibitors. KRAS mutant cell line AGS (KRAS^G12D) were purchased from ATCC and maintained in DMEM and RPMI medium supplemented with 10% fetal bovine serum and Penicillin/Streptomycin.
Cells grown in exponential phase were trypsinized, resuspended in fresh media, and viable cells were counted using a cell counter with Trypan Blue (BioRad TC20). Cells were seeded into 384-well plate (Greiner 781091) at density of 5,000 cells/well for AGS and allowed to grow overnight in a 37° C. CO2 incubator. The next day, compounds were dispensed into wells with a ½ log, 10-point serial dilution and top concentration of 10 μM using Tecan D300e dispenser and incubated for 3 hours in a 37° C. CO2 incubator. Cells were then fixed with paraformaldehyde (Electron Microscopy Sciences, 15710, 4% final concentration) for 30 min, permeabilized with wash buffer (1×PBS+0.1% Triton X-100) for 30 min and blocked with Odyssey blocking buffer (Li—COR 927-70001) for 1 hour, all at room temperature (RT). Phospho-ERK antibody (CST 4370L) was diluted 1:500 in Odyssey blocking+0.2% Tween 20 and incubated with cells overnight at 4° C. The next day, plates were washed 5× with wash buffer, incubated with IRDye 800 CW, Goat anti-Rabbit secondary antibody (Li—COR 926-32211, 1:500) and DRAQ5 (CST 4084L, 1:5,000) diluted in Odyssey blocking+0.2% Tween 20 for 1 hour, washed 5×, and imaged on an Odyssey CLx imaging system.
For data analysis, signal intensities from 800 (phosphor-ERK) and 700 (DRAQ5) channels were extracted, and phospho-ERK signals were normalized to DRAQ5 signals for each well and percent of DMSO control values were computed. Data were then imported into Graphpad Prism to compute half-maximal inhibitory concentrations (IC50) using a 4-parameter variable slope model. Z-factor for each plate was computed from signals derived from wells treated with either DMSO or 5 μM of Trametinib. AGS pERK ICW (Method B) IC50 (uM) values of selected compounds are depicted in Table 2 with compounds having a value 0.001 uM to 0.01 uM as ++++; >0.01 uM to 0.1 uM as +++; >0.1 uM to 1 uM as ++; 1 uM to 10 uM as + and >10 uM as NA.

[2] = molecular target: T1, GST-tagged KRAS G12D (2-169) (Homo sapiens, UniProt P01116, G12D); experiment: Nucleotide exchange assay (NEA), HTRF of SOS-mediated GTP-DY-647P1 binding; assay type: biochemical; conditions: 5 nM GST-KRAS G12D, 20 nM SOScat, 150 nM GTP; compound 1 h at RT
T1 construct: GST-tagged KRAS^G12D (2-169, Reaction Biology, MSC-11-539); purchased Reaction Biology MSC-11-539 (KRAS G12D); MSC-11-502 (SOS1cat)
T1 sequence (P01116 2-169 isoform P01116-2 G12D): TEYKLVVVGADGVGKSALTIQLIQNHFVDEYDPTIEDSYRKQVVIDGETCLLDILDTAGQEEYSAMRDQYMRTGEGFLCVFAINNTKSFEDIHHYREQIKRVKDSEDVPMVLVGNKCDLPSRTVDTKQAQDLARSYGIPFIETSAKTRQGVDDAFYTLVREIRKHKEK
Outline: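 SOS1cat (564-1049)-driven loading of GTP-DY-647P1 onto KRAS G12D, read by HTRF with anti-GST Tb cryptate donor; compound preincubated with KRAS 1 h at RT. Final 5 nM KRAS, 20 nM SOScat, 150 nM GTP, pH 7.3 HEPES buffer; read up to 90 min at RT. Blanked to no-SOS1; 4-parameter fit of % inhibition.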

## Cc1nc(-c2nn3c(c2Cl)CN(c2nc(OC[C@@]45CCCN4C[C@H](F)C5)nc4c2CN(C)[C@@]2(CCCc5ccccc52)C4)CCC3)no1 [Compound 87, 3-[3-chloro-5-[(7S)-2-[[(2R,8S)-2-fluoro-1,2,3,5,6,7-hexahydropyrrolizin-8-yl]methoxy]-6-methyl-spiro[5,8-dihydropyrido[4,3-d]pyrimidine-7,1′-tetralin]-4-yl]-4,6,7,8-tetrahydropyrazolo[1,5-a][1,4]diazepin-2-yl]-5-methyl-1,2,4-oxadiazole]
[1]; Homo sapiens
  IC50: 0.1 to 1 µM
[2]
  IC50: < 10 nM

## C#Cc1c(C(=O)N(C)C)nn2c1CN(c1nc(OC[C@@]34CCCN3C[C@H](F)C4)nc3c1CN(C)[C@@]1(CCCc4ccccc41)C3)CCC2 [Compound 81, 3-ethynyl-5-[(7S)-2-[[(2R,8S)-2-fluoro-1,2,3,5,6,7-hexahydropyrrolizin-8-yl]methoxy]-6-methyl-spiro[5,8-dihydropyrido[4,3-d]pyrimidine-7,1′-tetralin]-4-yl]-N,N-dimethyl-4,6,7,8-tetrahydropyrazolo[1,5-a][1,4]diazepine-2-carboxamide]
[1]; Homo sapiens
  IC50: 0.01 to 0.1 µM
[2]
  IC50: < 10 nM

## Cc1nnc(-c2nn3c(c2Cl)CN(c2nc(OC[C@@]45CCCN4C[C@H](F)C5)nc4c2CN(C)[C@@]2(CCCc5ccccc52)C4)CCC3)n1C [Compound 90, (7S)-4-[3-chloro-2-(4,5-dimethyl-1,2,4-triazol-3-yl)-4,6,7,8-tetrahydropyrazolo[1,5-a][1,4]diazepin-5-yl]-2-[[(2R,8S)-2-fluoro-1,2,3,5,6,7-hexahydropyrrolizin-8-yl]methoxy]-6-methyl-spiro[5,8-dihydropyrido[4,3-d]pyrimidine-7,1′-tetralin]]
[1]; Homo sapiens
  IC50: 0.01 to 0.1 µM
[2]
  IC50: < 10 nM

## CN(C)C(=O)c1nn2c(c1Cl)CN(c1nc(OC[C@@]34CCCN3C[C@H](F)C4)nc3c1CN(C)[C@@]1(CCc4cccc(F)c41)C3)CCC2 [Compound 63, 3-chloro-5-[(7S)-7′-fluoro-2-[[(2R,8S)-2-fluoro-1,2,3,5,6,7-hexahydropyrrolizin-8-yl]methoxy]-6-methyl-spiro[5,8-dihydropyrido[4,3-d]pyrimidine-7,1′-indane]-4-yl]-N,N-dimethyl-4,6,7,8-tetrahydropyrazolo[1,5-a][1,4]diazepine-2-carboxamide]
[1]; Homo sapiens
  IC50: 0.01 to 0.1 µM
[2]
  IC50: < 10 nM

## O=C1NC(=O)C2(CCCN(c3nc(OC[C@@]45CCCN4C[C@H](F)C5)nc4c3COC3(CCc5c(Cl)cccc53)C4)C2)N1 (single isomer, unassigned) [Compound 24A, (5*)-9-[(7*)-4′-chloro-2-[[(2R,8S)-2-fluoro-1,2,3,5,6,7-hexahydropyrrolizin-8-yl]methoxy]spiro[5,8-dihydropyrano[4,3-d]pyrimidine-7,1′-indane]-4-yl]-1,3,9-triazaspiro[4.5]decane-2,4-dione]
[1]; Homo sapiens
  IC50: 1 to 10 µM
[2]
  IC50: 10 to 100 nM

## CN(C)C(=O)c1cc2n(n1)CCCN(c1nc(OC[C@@]34CCCN3C[C@H](F)C4)nc3c1CN(C)[C@@]1(CCCc4ccc(O)cc41)C3)C2 [Compound 39A, 5-[(7S)-2-[[(2R,8S)-2-fluoro-1,2,3,5,6,7-hexahydropyrrolizin-8-yl]methoxy]-7′-hydroxy-6-methyl-spiro[5,8-dihydropyrido[4,3-d]pyrimidine-7,1′-tetralin]-4-yl]-N,N-dimethyl-4,6,7,8-tetrahydropyrazolo[1,5-a][1,4]diazepine-2-carboxamide]
[1]; Homo sapiens
  IC50: 0.1 to 1 µM
[2]
  IC50: < 10 nM

## OC1CCCN(c2nc(OC[C@@]34CCCN3C[C@H](F)C4)nc3c2COC2(CCCc4ccc(Br)cc42)C3)CC1 (stereo partly drawn) [Compound 4, 1-[7′-bromo-2-[[(2R,8S)-2-fluoro-1,2,3,5,6,7-hexahydropyrrolizin-8-yl]methoxy]spiro[5,8-dihydropyrano[4,3-d]pyrimidine-7,1′-tetralin]-4-yl]azepan-4-ol]
[1]; Homo sapiens
  IC50: > 10 µM
[2]
  IC50: 1000 to 20000 nM

## C=C1CN2CCCC2(COc2nc3c(c(N4CCCn5nc(C(=O)N(C)C)c(Cl)c5C4)n2)CO[C@@]2(CCc4c(Cl)cccc42)C3)C1 (mixture of isomers) [Compound 54, 3-chloro-N,N-dimethyl-5-[rac-(7S)-4′-chloro-2-[(6-methylene-2,3,5,7-tetrahydro-1H-pyrrolizin-8-yl)methoxy]spiro[5,8-dihydropyrano[4,3-d]pyrimidine-7,1′-indane]-4-yl]-4,6,7,8-tetrahydropyrazolo[1,5-a][1,4]diazepine-2-carboxamide]
[1]; Homo sapiens
  IC50: 0.1 to 1 µM
[2]
  IC50: < 10 nM

## CN1CCN(C(=O)c2nn3c(c2Cl)CN(c2nc(OC[C@@]45CCCN4C[C@H](F)C5)nc4c2CO[C@@]2(CCc5c(Cl)cccc52)C4)CCC3)CC1 [Compound 50, [3-chloro-5-[(7S)-4′-chloro-2-[[(2R,8S)-2-fluoro-1,2,3,5,6,7-hexahydropyrrolizin-8-yl]methoxy]spiro[5,8-dihydropyrano[4,3-d]pyrimidine-7,1′-indane]-4-yl]-4,6,7,8-tetrahydropyrazolo[1,5-a][1,4]diazepin-2-yl]-(4-methylpiperazin-1-yl)methanone]
[1]; Homo sapiens
  IC50: 0.1 to 1 µM
[2]
  IC50: < 10 nM

## CN(C)C(=O)c1nn2c(c1Cl)CN(c1nc(OC[C@@]34CCCN3C[C@H](F)C4)nc3c1CN(C)[C@@]1(CCc4c(F)cccc41)C3)CCC2 [Compound 65, 3-chloro-5-[(7S)-4′-fluoro-2-[[(2R,8S)-2-fluoro-1,2,3,5,6,7-hexahydropyrrolizin-8-yl]methoxy]-6-methyl-spiro[5,8-dihydropyrido[4,3-d]pyrimidine-7,1′-indane]-4-yl]-N,N-dimethyl-4,6,7,8-tetrahydropyrazolo[1,5-a][1,4]diazepine-2-carboxamide]
[1]; Homo sapiens
  IC50: 0.01 to 0.1 µM
[2]
  IC50: < 10 nM

## F[C@H]1CN2CCC[C@@]2(COc2nc3c(c(N4CCCCCC4)n2)COC2(CCc4c(Cl)cccc42)C3)C1 (stereo partly drawn) [Compound 1, 4′-(azepan-1-yl)-4-chloro-2′-(((2R,7aS)-2-fluorotetrahydro-1H-pyrrolizin-7a(5H)-yl)methoxy)-2,3,5′,8′-tetrahydrospiro[indene-1,7′-pyrano[4,3-d]pyrimidine]]
[1]; Homo sapiens
  IC50: > 10 µM
[2]
  IC50: 1000 to 20000 nM

## CN(C)C(=O)c1nn2c(c1Cl)CN(c1nc(OC[C@@]34CCCN3C[C@H](F)C4)nc3c1CN(C)[C@@]1(CCc4c(Cl)cccc41)C3)CCC2 [Compound 55, 3-chloro-5-((S)-4-chloro-2′-(((2R,7aS)-2-fluorotetrahydro-1H-pyrrolizin-7a(5H)-yl)methoxy)-6′-methyl-2,3,5′,8′-tetrahydro-6′H-spiro[indene-1,7′-pyrido[4,3-d]pyrimidin]-4′-yl)-N,N-dimethyl-5,6,7,8-tetrahydro-4H-pyrazolo[1,5-a][1,4]diazepine-2-carboxamide]
[1]; Homo sapiens
  IC50: 0.1 to 1 µM
[2]
  IC50: < 10 nM

## CN(C)C(=O)c1cc2n(n1)CCCN(c1nc(OC[C@@]34CCCN3C[C@H](F)C4)nc3c1CN(C)C1(CCCc4ccc(O)cc41)C3)C2 (stereo partly drawn) [Compound 39, 5-[7′-hydroxy-6-methyl-2-[[(2R,8S)-2-fluoro-1,2,3,5,6,7-hexahydropyrrolizin-8-yl]methoxy]spiro[5,8-dihydropyrido[4,3-d]pyrimidine-7,1′-tetralin]-4-yl]-N,N-dimethyl-4,6,7,8-tetrahydropyrazolo[1,5-a][1,4]diazepine-2-carboxamide]
[1]; Homo sapiens
  IC50: 1 to 10 µM
[2]
  IC50: < 10 nM

## C[C@@]1(NC#N)CCCN(c2nc(OC[C@@]34CCCN3C[C@H](F)C4)nc3c2COC2(CCc4c(Cl)cccc42)C3)C1 (stereo partly drawn) [Compound 46A, [(3R)-1-[(7*)-4′-chloro-2-[[(2R,8S)-2-fluoro-1,2,3,5,6,7-hexahydropyrrolizin-8-yl]methoxy]spiro[5,8-dihydropyrano[4,3-d]pyrimidine-7,1′-indane]-4-yl]-3-methyl-3-piperidyl]cyanamide; 2,2,2-trifluoroacetic acid]
[1]
  IC50: > 10 µM
[2]
  IC50: 100 to 1000 nM
